Source: patent publication US20220000841A1, “INHIBITORS OF METALLO-BETA-LACTAMASES” (CENTRE NATIONAL DE LA RECHERCHE SCIENTIFIQUE, priority 2018, published 2022)

Tests used:
VIM-2 = VIM-2 (Escherichia coli, UniProt Q5U7L7); assay: Enzymatic assay for determination of inhibition constants, reporter substrate method, purified VIM-2; type: biochemical; conditions: isolated MBL, competitive inhibition model; read-out: Ki VIM-2;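 further: purified VIM-2 hydrolysing a reporter substrate (imipenem, meropenem, cefotaxime or nitrocefin), reaction rate read as absorbance change, HEPES 50 mM at pH 7.5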
Method: (§1) The reaction rate was measured as the variation of absorbance observed upon substrate hydrolysis in a UV-Vis spectrophotometer or microplate reader at a wavelength of 300 nm (imipenem, meropenem), 260 nm (cefotaxime) or 482 nm (nitrocefin) in 50 mM HEPES buffer (pH 7.5) and in the presence of a purified MBL enzyme (such as VIM-1, VIM-2, VIM-4, NDM-1 and IMP-1, at a final concentration ranging 1-70 nM).
(§2) The inhibition constants (Ki) were determined on the basis of a model of competitive inhibition by analyzing the dependence of the ratio v0/vi (v0, hydrolysis velocity in the absence of inhibitor; vi, hydrolysis velocity in the presence of inhibitor) as a function of [I] as already described [Docquier J. D., Lamotte-Brasseur J., Galleni M., Amicosante G., Frère J. M., Rossolini G. M. (2003) J. Antimicrob. […] The slope of the plot of v0/vi vs [I], which corresponds to Km^S/(Km^S+[S])Ki (where Km^S is the Km value of the reporter substrate and [S] its concentration in the reaction mixture) and allowed the calculation of the Ki value. Alternatively, a Dixon plot analysis was carried out, by measuring the initial hydrolysis rates in the presence of variable concentrations of inhibitor and substrate.

NDM-1 = NDM-1 (Klebsiella pneumoniae, UniProt C7C422); assay: Enzymatic assay for determination of inhibition constants, reporter substrate method, purified NDM-1; type: biochemical; conditions: for Ki: isolated MBL, competitive inhibition model;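 on all read-outs here: purified enzyme activity followed as absorbance change from reporter substrate hydrolysis on a UV-Vis spectrophotometer or plate reader, 50 mM HEPES pH 7.5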
[1] = system: K. pneumoniae SI-001 (blaVIM-1+); assay: Broth microdilution MIC of meropenem in absence and presence of MBL inhibitor, SI-001; type: cell-based; conditions: MBL inhibitor fixed at 32 μg/ml, Mueller-Hinton broth, duplicate
Method: (§3) This method was performed in agreement with the CLSI recommendations (document M07-A10, 2015, “Methods for Dilution Antimicrobial Susceptibility Tests for Bacteria That Grow Aerobically”).
(§4) MIC values of meropenem (MEM) were determined in duplicate in Mueller-Hinton broth as recommended by CLSI (document M07-A10, 2015), in absence and presence of a fixed concentration of MBL inhibitor (32 μg/ml).

IMP-1 = IMP-1 (Serratia marcescens, UniProt P52699); assay: Enzymatic assay for determination of inhibition constants, reporter substrate method, purified IMP-1; type: biochemical; conditions: for Ki: isolated MBL, competitive inhibition model; for % inhibition IMP-1: at 100 μM (maximal tested concentration);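 on all read-outs here: purified IMP-1 (1-70 nM) hydrolysing a reporter substrate, initial rates followed as absorbance change at 260, 300 or 482 nm in 50 mM HEPES pH 7.5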
VIM-1 = VIM-1 (Pseudomonas aeruginosa, UniProt A0A0F7KYQ8); assay: Enzymatic assay for determination of inhibition constants, reporter substrate method, purified VIM-1; type: biochemical; conditions: isolated MBL, competitive inhibition model;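 further: initial hydrolysis rates of a reporter β-lactam (imipenem, meropenem, cefotaxime or nitrocefin) followed by absorbance change, purified enzyme at 1–70 nM in 50 mM HEPES pH 7.5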
Method: as §1, §2

[2] = system: K. pneumoniae S1-002 (blaVIM-4+); assay: Broth microdilution MIC of meropenem in absence and presence of MBL inhibitor, S1-002; type: cell-based; conditions: MBL inhibitor fixed at 32 μg/ml, Mueller-Hinton broth, duplicate
Method: as §3, §4

VIM-4 = VIM-4 (Pseudomonas aeruginosa, UniProt Q8KRJ3); assay: Enzymatic assay for determination of inhibition constants, reporter substrate method, purified VIM-4; type: biochemical; conditions: at 100 μM (maximal tested concentration);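 further: purified VIM-4 (1-70 nM) in 50 mM HEPES pH 7.5, reporter substrate hydrolysis rate tracked by absorbance change (nitrocefin 482 nm, imipenem or meropenem 300 nm, cefotaxime 260 nm)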
Method: as §1, §2

[3] = at 100 μM (maximal tested concentration)

IMP-1, sequence (P52699 19-246, looked up, species assumed): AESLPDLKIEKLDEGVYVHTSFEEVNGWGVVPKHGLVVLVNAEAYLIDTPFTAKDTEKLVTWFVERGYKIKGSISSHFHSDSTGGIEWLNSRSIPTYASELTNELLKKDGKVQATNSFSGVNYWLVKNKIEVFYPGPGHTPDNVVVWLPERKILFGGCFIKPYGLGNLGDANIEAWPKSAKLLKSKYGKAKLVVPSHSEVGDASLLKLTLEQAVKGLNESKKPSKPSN
NDM-1, sequence (C7C422 29-270, looked up, species assumed): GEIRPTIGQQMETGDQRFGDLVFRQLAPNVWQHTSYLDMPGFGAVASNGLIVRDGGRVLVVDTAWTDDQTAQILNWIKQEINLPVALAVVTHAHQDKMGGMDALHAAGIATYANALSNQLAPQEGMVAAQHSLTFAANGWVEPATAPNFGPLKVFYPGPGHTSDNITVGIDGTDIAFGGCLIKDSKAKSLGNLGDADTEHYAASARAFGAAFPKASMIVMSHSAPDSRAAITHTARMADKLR

Row | SMILES | Ki (VIM-2) | Ki (NDM-1) | MIC potentiation of meropenem (x.log2 dilutions), K. pneumoniae SI-001 (blaVIM-1+) [1] | Ki (IMP-1) | Ki (VIM-1) | MIC potentiation of meropenem (x.log2 dilutions), K. pneumoniae S1-002 (blaVIM-4+) [2] | % inhibition IMP-1 (IMP-1) | % inhibition NDM-1 (NDM-1; [3]) | % inhibition VIM-4 (VIM-4) | % inhibition NDM-1 (NDM-1; at 200 μM (maximal tested concentration)) | melting point
1 | CN1CCN(CCOc2cccc(-c3n[nH]c(=S)n3CCc3ccccc3C(=O)O)c2)CC1 [Compound 63, o-[2-(3-{m-[2-(4-Methyl-1-piperazinyl)ethoxy]phenyl}-5-thioxo-1,4-dihydro-1,2,4-triazol-4-yl)ethyl]benzoic acid] | < 1 µM | > 100 µM | 2 log2 dilutions | > 100 µM | 1 to 10 µM | 3 log2 dilutions | – | – | – | – | –
2 | S=c1[nH]nc(-c2ccccc2)n1CCSc1ccccc1 [Compound 70, 5-Phenyl-4-[2-(phenylthio)ethyl]-2,4-dihydro-1,2,4-triazole-3-thione] | 1 to 10 µM | 10 to 100 µM | ≥4 log2 dilutions | – | 1 to 10 µM | ≥4 log2 dilutions | 84% at 100 μM | – | – | – | –
3 | Fc1ccc(CSCCn2c(-c3ccccc3)n[nH]c2=S)c(F)c1 [Compound 73, 4-[2-(2,4-Difluorobenzylsulfanyl)ethyl]-3-phenyl-4,5-dihydro-1H-1,2,4-triazole-5-thione] | < 1 µM | 10 to 100 µM | 3 log2 dilutions | 1 to 10 µM | 1 to 10 µM | ≥4 log2 dilutions | – | – | – | – | –
4 | O=C(O)C(CSCCn1c(-c2cccc(-c3ccccc3)c2)n[nH]c1=S)c1ccccc1 (centres unmarked) [Compound 81, 3-{2-[3-(3-Biphenylyl)-5-thioxo-1,4-dihydro-1,2,4-triazol-4-yl]ethylthio}-hydratropic acid] | < 1 µM | – | 2 log2 dilutions | – | 1 to 10 µM | 3 log2 dilutions | 56% at 100 μM | 77% at 100 μM | – | – | –
5 | O=[N+]([O-])c1ccccc1CSCCn1c(-c2ccccc2)n[nH]c1=S [Compound 75, 4-[2-(2-Nitrobenzylsulfanyl)ethyl]-3-phenyl-4,5-dihydro-1H-1,2,4-triazole-5-thione] | < 1 µM | – | 3 log2 dilutions | – | < 1 µM | ≥4 log2 dilutions | 72% at 100 μM | 69% at 100 μM | – | – | –
6 | O=C(O)c1ccccc1CCn1c(-c2cccc(OCCN3CCOCC3)c2)n[nH]c1=S [Compound 62, o-(2-{3-[m-(2-Morpholinoethoxy)phenyl]-5-thioxo-1,4-dihydro-1,2,4-triazol-4-yl}ethyl)benzoic acid] | < 1 µM | > 100 µM | 2 log2 dilutions | > 100 µM | 1 to 10 µM | 3 log2 dilutions | – | – | – | – | –
7 | O=C(O)CCSCCn1c(-c2ccccc2)n[nH]c1=S [Compound 66, [2-(3-Phenyl-5-thioxo-1,4-dihydro-1,2,4-triazol-4-yl)ethylthio]propionic acid] | 1 to 10 µM | – | 3 log2 dilutions | – | 1 to 10 µM | ≥4 log2 dilutions | 65% at 100 μM | 60% at 100 μM | – | – | –
8 | Cc1ccccc1-c1n[nH]c(=S)n1CCSCc1ccccc1 [Compound 80, 4-[2-(Benzylthio)ethyl]-5-(o-tolyl)-2,4-dihydro-1,2,4-triazole-3-thione] | < 1 µM | 10 to 100 µM | 2 log2 dilutions | 10 to 100 µM | < 1 µM | 3 log2 dilutions | – | – | – | – | –
9 | O=C(O)c1ccccc1CCn1c(-c2ccc3ccccc3c2)n[nH]c1=S [Compound 3, 2-{2-[3-(naphthalen-2-yl)-5-sulfanylidene-4,5-dihydro-1H-1,2,4-triazol-4-yl]ethyl}benzoic acid] | < 1 µM | – | – | 10 to 100 µM | > 100 µM | – | – | – | 75% at 100 μM | 60% at 200 μM | 240 to 241 °C
10 | Fc1ccc(CSCCn2c(-c3ccccc3)n[nH]c2=S)cc1 [Compound 72, 4-[2-(4-Fluorobenzylsulfanyl)ethyl]-3-phenyl-4,5-dihydro-1H-1,2,4-triazole-5-thione] | < 1 µM | 1 to 10 µM | 1 log2 dilutions | – | 1 to 10 µM | 3 log2 dilutions | 96% at 100 μM | – | – | – | –
11 | O=C(O)CCCn1c(-c2ccc3ccccc3c2)n[nH]c1=S [Compound 19, 4-[3-(naphthalen-2-yl)-5-sulfanylidene-4,5-dihydro-1H-1,2,4-triazol-4-yl]butanoic acid] | 1 to 10 µM | > 100 µM | – | > 100 µM | > 100 µM | – | – | – | 75% at 100 μM | – | 220 to 221 °C
12 | O=C1OC(Cn2c(-c3ccccc3)n[nH]c2=S)c2ccccc21 (centres unmarked) [Compound 37, 5-Phenyl-4-[(3-phthalideyl)methyl]-2,4-dihydro-1,2,4-triazole-3-thione] | > 100 µM | – | 3 log2 dilutions | > 100 µM | < 1 µM | 3 log2 dilutions | – | 50% at 100 μM | – | – | –
13 | O=[N+]([O-])c1ccc(CSCCn2c(-c3ccccc3)n[nH]c2=S)cc1 [Compound 74, 4-[2-(4-Nitrobenzylsulfanyl)ethyl]-3-phenyl-4,5-dihydro-1H-1,2,4-triazole-5-thione] | 1 to 10 µM | – | 3 log2 dilutions | – | < 1 µM | ≥4 log2 dilutions | 92% at 100 μM | 95% at 100 μM | – | – | –
14 | O=C(O)CC(Cn1c(-c2ccccc2)n[nH]c1=S)c1ccc(Cl)cc1 (centres unmarked) [Compound 21, 3-(4-chlorophenyl)-4-(3-phenyl-5-sulfanylidene-4,5-dihydro-1H-1,2,4-triazol-4-yl)butanoic acid] | 1 to 10 µM | > 100 µM | – | > 100 µM | > 100 µM | – | – | – | 95% at 100 μM | – | 153 to 154 °C
15 | Oc1ccc(CCn2c(-c3cccc(-c4ccccc4)c3)n[nH]c2=S)c(O)c1 [Compound 42, 5-(3-Biphenyl)-4-[2-(2,4-dihydroxyphenyl)ethyl]-1,2,4-triazole-3-thione] | 1 to 10 µM | 10 to 100 µM | ≥4 log2 dilutions | > 100 µM | < 1 µM | ≥4 log2 dilutions | – | – | – | – | –
16 | Fc1ccccc1CSCCn1c(-c2ccccc2)n[nH]c1=S [Compound 71, 4-[2-(2-Fluorobenzylsulfanyl)ethyl]-3-phenyl-4,5-dihydro-1H-1,2,4-triazole-5-thione] | < 1 µM | 10 to 100 µM | ≥4 log2 dilutions | – | < 1 µM | 3 log2 dilutions | 97% at 100 μM | – | – | – | –
17 | COc1cccc(-c2n[nH]c(=S)n2CCc2ccccc2C(=O)O)c1 [Compound 22, 2-{2-[3-(3-methoxyphenyl)-5-sulfanylidene-4,5-dihydro-1H-1,2,4-triazol-4-yl]ethyl}benzoic acid] | < 1 µM | > 100 µM | – | > 100 µM | – | – | – | – | 80% at 100 μM | – | 197 to 198 °C
18 | COc1ccc(O)c(-c2n[nH]c(=S)n2CCCC(=O)O)c1 [Compound 18, 4-[3-(2-hydroxy-5-methoxyphenyl)-5-sulfanylidene-4,5-dihydro-1H-1,2,4-triazol-4-yl]butanoic acid] | 1 to 10 µM | > 100 µM | – | > 100 µM | > 100 µM | – | – | – | 90% at 100 μM | – | 155 to 156 °C
